Experimental data published in patent US10519177B2, “Heterocyclic compounds and uses thereof” (Plexxikon Inc., priority 2013, dated 2019).

Target: BRD4-BD1 (44-164) (Homo sapiens (Human), UniProt O60885)
Experiment: Alphascreen binding assay BRD4-BD1
Settings: BRD4(1) H4; read-out: Biochemical activity (IC50 μM) BRD4(1) H4
Experimental: Binding of compounds of formula (I) with bromodomain 2, 3 4 was assessed using Alphascreen binding assay. The inhibition of the interaction between bromodomain and its acetylated target protein (Filippakopoulos P et al. 2012) was measured quantitatively using recombinant BRD proteins, an acetylated Histone 4 peptide and AlphaScreen™ technology. In absence of inhibition the BRD protein bound to AlphaScreen™ nickel chelate acceptor beads can interact with the acetylated Histone 4 peptide which is immobilized by the AlphaScreen™ Streptavidin coated beads. This interaction brings donor and acceptor beads in proximity. The close proximity allows the singlet oxygen produced by laser excitation of the donor beads to reach the acceptor beads and generate a luminescence signal.
Recombinant human bromodomains containing the N-terminal bromodomain (BRD2-BD1 (71-194), BRD3-BD1 (24-144) and BRD4-BD1 (44-164)) or dual bromodomains (BRD4-BD12 (1-477), BRD4-BD12 (1-472)) were prepared and purified as described in protein expression and purification session. The peptide is human Histone H41-21K5AcK8AcK12AcK16Ac-Biotin (Anaspec CA, USA).
Protocol for BRD2, BRD3 and BRD4 assay: All components are prepared in buffer composed of 50 mM HEPES pH 7.5, 100 mM NaCl, 0.01% bovine serum albumin (“BSA”), 0.01% Triton X-100, 2 mM dithiothreitol (“DTT”). 7 μL of Bromodomain protein and 7 μL of peptide are added to wells containing 1 μL of various concentrations of test compounds of formula (I) or DMSO vehicle in an Alphaplate (PerkinElmer GA, USA) and incubated for 1 hour at room temperature. 4 μL donor and acceptor bead mixture is then added with final concentrations of 7.5 μg/ml. 30 minutes after bead addition, Alpha signal is read on the Envision spectrometer (λEx 680 nm, λEm 520-620 nm). Final concentrations of bromodomain proteins and peptide are as shown below.
All data was normalized to the mean of 16 high and 16 low control wells on each plate. A four parameter curve fit of the following formula was then applied: Y=a+(b−a)/(1+(x/c)^d) Where ‘a’ is the minimum, ‘b’ is the maximum, ‘c’ is the pIC50 and ‘d’ is the Hill slope. Protein Expression and Purification
Recombinant human bromodomains containing the N-terminal bromodomain (BRD2-BD1 (71-194), BRD3-BD1 (24-144) and BRD4-BD1 (44-164)) or dual bromodomains (BRD4-BD12 (1-477), BRD4-BD12 (1-472)) were expressed in E. coli cells (in a modified pET vector) with an N-terminal six-His tag and purified using a combination of both IMAC (Ni-affinity) and size exclusion chromatography steps.
Recombinant BRD proteins were expressed using the E. coli strain BL21-CodonPlus (DE3) (Agilent Technologies CA, USA). Cells were grown in Terrific Broth (TB) media to an OD600 of 1.2 at 37° C. at which temperature was reduced to 25° C., protein was induced with 1.0 mM ispropyl-β-D-thiogalactopyranoside (“IPTG”) for 12-18 hours and harvested by centrifugation at 8000×g for 20 minutes. Cells were re-suspended in 0.1M K2PO4 pH 8.0, 250 mM NaCl, 10% Glycerol, 0.75% NP-40, 25 mM Imidazole, 5 mM beta-mercaptoethanol (“BME”) with 0.2 mg/ml Lysosyme, 2.0 mM phenylmethanesulfonyl fluoride (“PMSF”), 25 μg/ml DNAse I, incubated on ice for 30 minutes and lyzed with a cell disruptor (MicroFluidics MA, USA). The lysate was clarified by centrifugation at 20,000×g for 2 hours. The protein was captured with Ni-NTA resin (Life Technologies, USA). Contaminating proteins were washed off with 25 mM Tris-HCl pH 8.3, 250 mM NaCl, 12% Glycerol and 50 mM Imidazole. Following 3× wash steps, protein was eluted step wise using a 50 mM HEPES pH 7.5, 500 mM NaCl and 400 mM Imidazole. The protein was further purified using Gel Filtration column 26/600 Superdex 200 (GE Biosciences NJ, USA) in 50 mM HEPES pH 7.5, 250 mM NaCl. The protein was aliquoted and flash-frozen in liquid Nitrogen.

Structure (SMILES)	IC50 [µM]
Cc1noc(C)c1-c1cnc2[nH]cc(C3=CCC(F)(F)CC3)c2c1 [P-0029, 4-[3-(4,4-difluorocyclo-hexen-1-yl)-1H-pyrrolo[2,3-b]pyridin-5-yl]-3,5-dimethyl-isoxazole]	< 1
CCS(=O)(=O)n1cc(C(OC)C2CCC(F)(F)CC2)c2cc(-c3c(C)noc3C)cnc21 (stereo not drawn) [P-0078, 4-[3-[(4,4-difluoro-cyclohexyl)-methoxy-methyl]-1-ethylsulfonyl-pyrrolo[2,3-b]pyridin-5-yl]-3,5-dimethyl-isoxazole]	< 1
COC(c1c[nH]c2ncc(-c3c(C)noc3C)cc12)C1CCC(F)(F)CC1 (stereo not drawn) [P-0073, 4-[3-[(4,4-difluorocyclohexyl)-methoxy-methyl]-1H-pyrrolo[2,3-b]pyridin-5-yl]-3,5-dimethyl-isoxazole]	< 1
Cc1noc(C)c1-c1cnc2[nH]cc(S(=O)(=O)c3ccccc3)c2c1 [P-0145, 4-[3-(benzenesulfonyl)-1H-pyrrolo[2,3-b]pyridin-5-yl]-3,5-dimethyl-isoxazole]	< 1
Cc1noc(C)c1-c1cnc2c(-c3cnn(C)c3)cn(Cc3cc(F)ccc3Cl)c2c1 [P-0190, 4-[1-[(2-chloro-5-fluoro-phenyl)methyl]-3-(1-methylpyrazol-4-yl)pyrrolo[3,2-b]pyridin-6-yl]-3,5-dimethyl-isoxazole]	< 1
Cc1noc(C)c1-c1cnc2c(c1)c(CC1CCN(C(=O)c3ccccc3)CC1)cn2C [P-0115, [4-[[5-(3,5-dimethylisoxazol-4-yl)-1-methyl-pyrrolo[2,3-b]pyridin-3-yl]methyl]-1-piperidyl]-phenyl-methanone]	< 1
Cc1noc(C)c1-c1cnc2c(-c3cnn(C)c3)cn(S(=O)(=O)c3ccccc3)c2c1 [P-0110, 4-[1-(benzenesulfonyl)-3-(1-methylpyrazol-4-yl)pyrrolo[3,2-b]pyridin-6-yl]-3,5-dimethyl-isoxazole]	< 1
Cc1noc(C)c1-c1cnc2c(CC3CC3)cn(S(=O)(=O)C3CCCCC3)c2c1 [P-0075, 4-[1-cyclohexylsulfonyl-3-(cyclopropylmethyl)pyrrolo[3,2-b]pyridin-6-yl]-3,5-dimethyl-isoxazole]	< 1
CCCS(=O)(=O)n1cc(-c2cnn(CCOC)c2)c2ncc(-c3c(C)noc3C)cc21 [P-0152, 4-[3-[1-(2-methoxy-ethyl)pyrazol-4-yl]-1-propylsulfonyl-pyrrolo[3,2-b]pyridin-6-yl]-3,5-dimethyl-isoxazole]	< 1
Cc1noc(C)c1-c1cnc2c(-c3cnn(C)c3)cn(Cc3cccnc3)c2c1 [P-0195, 3,5-dimethyl-4-[3-(1-methylpyrazol-4-yl)-1-(3-pyridylmethyl)pyrrolo[3,2-b]pyridin-6-yl]isoxazole]	< 1
Cc1noc(C)c1-c1cnc2c(-c3cnn(C4CCOC4)c3)cn(S(=O)(=O)C3CCCC3)c2c1 (stereo not drawn) [P-0153, 4-[1-cyclopentyl-sulfonyl-3-(1-tetrahydrofuran-3-ylpyrazol-4-yl)pyrrolo[3,2-b]pyridin-6-yl]-3,5-dimethyl-isoxazole]	< 1
Cc1noc(C)c1-c1cnc2c(-c3cnn(C)c3)cn(C(C(=O)O)c3ccccc3)c2c1 (stereo not drawn) [P-0206, 2-[6-(3,5-dimethylisoxazol-4-yl)-3-(1-methylpyrazol-4-yl)pyrrolo[3,2-b]pyridin-1-yl]-2-phenyl-acetic acid]	< 1
Cc1noc(C)c1-c1cnc2ccn(Cc3ccccc3)c2c1 [P-0162, 4-(1-benzylpyrrolo[3,2-b]pyridin-6-yl)-3,5-dimethyl-isoxazole]	< 1
Cc1noc(C)c1-c1cnc2c(-c3cnn(C)c3)cn(CC3CCC(F)(F)CC3)c2c1 [P-0209, 4-[1-[(4,4-difluorocyclohexyl)methyl]-3-(1-methylpyrazol-4-yl)pyrrolo[3,2-b]pyridin-6-yl]-3,5-dimethyl-isoxazole]	< 1
CCn1cc(-c2cn(S(=O)(=O)c3ccccc3F)c3cc(-c4c(C)noc4C)cnc23)cn1 [P-0125, 4-[3-(1-ethylpyrazol-4-yl)-1-(2-fluorophenyl)sulfonyl-pyrrolo[3,2-b]pyridin-6-yl]-3,5-dimethyl-isoxazole]	< 1
